Results: US20230322846A9, “NEUROACTIVE STEROIDS AND THEIR METHODS OF USE” (SAGE THERAPEUTICS, INC., priority 2018, published 2023)

These compounds were tested against [35S]-TBPS binding, rat brain cortical membranes (assay: Steroid inhibition of [35S]-TBPS binding). Conditions: 3 nM [35S]-TBPS, in the presence of 5 mM GABA.
Procedure, shortened: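 In the presence of […], compounds (DMSO 0.5% final) competed with 3 nM [35S]-TBPS for Sprague-Dawley rat cortical membranes, pH 7.4 phosphate buffer, 90 min, room temperature. Filtration and scintillation counting; specific binding defined by […]; IC50 and maximal inhibition fitted per experiment, averaged as mean ± SEM.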

Structure (SMILES) | IC50
C[C@@H](NC(=O)c1ccc(C#N)cc1)[C@H]1CC[C@H]2[C@@H]3CC[C@@H]4C[C@](C)(O)CC[C@@H]4[C@H]3CC[C@]12C [Example 108] | 100 to 1000 nM
C[C@@H](NC(=O)c1cccc(C#N)c1)[C@H]1CC[C@H]2[C@@H]3CC[C@@H]4C[C@](C)(O)CC[C@@H]4[C@H]3CC[C@]12C [Example 109] | < 100 nM
C[C@H](NC(=O)c1cccc(C#N)c1)[C@H]1CC[C@H]2[C@@H]3CC[C@@H]4C[C@](C)(O)CC[C@@H]4[C@H]3CC[C@]12C [Example 110] | 1000 to 10000 nM
COC[C@@]1(O)CC[C@H]2[C@H](CC[C@@H]3[C@@H]2CC[C@]2(C)[C@@H]([C@@H](C)NC(=O)c4ccc(OC(F)(F)F)cc4)CC[C@@H]32)C1 [Example 111] | < 100 nM
COC[C@@]1(O)CC[C@H]2[C@H](CC[C@@H]3[C@@H]2CC[C@]2(C)[C@@H]([C@H](C)NC(=O)c4ccc(OC(F)(F)F)cc4)CC[C@@H]32)C1 [Example 112] | 100 to 1000 nM
COC[C@@]1(O)CC[C@H]2[C@H](CC[C@@H]3[C@@H]2CC[C@]2(C)[C@@H]([C@@H](C)NC(=O)c4ccc(F)cc4)CC[C@@H]32)C1 [Example 113] | 100 to 1000 nM
COC[C@@]1(O)CC[C@H]2[C@H](CC[C@@H]3[C@@H]2CC[C@]2(C)[C@@H]([C@H](C)NC(=O)c4ccc(F)cc4)CC[C@@H]32)C1 [Example 114] | 1000 to 10000 nM
C[C@H](NC(=O)c1ccc(C#N)cc1)[C@H]1CC[C@H]2[C@@H]3CC[C@@H]4C[C@](C)(O)CC[C@@H]4[C@H]3CC[C@]12C [Example 115] | 1000 to 10000 nM
C[C@@H](NC(=O)c1ccc(F)cc1)[C@H]1CC[C@H]2[C@@H]3CC[C@@H]4C[C@](C)(O)CC[C@@H]4[C@H]3CC[C@]12C [Example 116] | < 100 nM
C[C@H](NC(=O)c1ccc(F)cc1)[C@H]1CC[C@H]2[C@@H]3CC[C@@H]4C[C@](C)(O)CC[C@@H]4[C@H]3CC[C@]12C [Example 117] | 1000 to 10000 nM
COC[C@@]1(O)CC[C@H]2[C@H](CC[C@@H]3[C@@H]2CC[C@]2(C)[C@@H]([C@@H](C)NC(=O)c4cc(C)nn4C)CC[C@@H]32)C1 [Example 118] | 100 to 1000 nM
COC[C@@]1(O)CC[C@H]2[C@H](CC[C@@H]3[C@@H]2CC[C@]2(C)[C@@H]([C@H](C)NC(=O)c4cc(C)nn4C)CC[C@@H]32)C1 [Example 119] | 1000 to 10000 nM
C[C@H](NC(=O)c1ccc(C#N)cn1)[C@H]1CC[C@H]2[C@@H]3CC[C@@H]4C[C@](C)(O)CC[C@@H]4[C@H]3CC[C@]12C [Example 121] | 1000 to 10000 nM
C[C@H](NC(=O)c1ccc(F)cn1)[C@H]1CC[C@H]2[C@@H]3CC[C@@H]4C[C@](C)(O)CC[C@@H]4[C@H]3CC[C@]12C [Example 124] | 100 to 1000 nM
COC[C@@]1(O)CC[C@H]2[C@H](CC[C@@H]3[C@@H]2CC[C@]2(C)[C@@H]([C@@H](C)NC(=O)c4ccc(F)cn4)CC[C@@H]32)C1 [Example 125] | 100 to 1000 nM
COC[C@@]1(O)CC[C@H]2[C@H](CC[C@@H]3[C@@H]2CC[C@]2(C)[C@@H]([C@H](C)NC(=O)c4ccc(F)cn4)CC[C@@H]32)C1 [Example 126] | 1000 to 10000 nM
C[C@@H](NC(=O)c1ccc(F)cn1)[C@H]1CC[C@H]2[C@@H]3CC[C@@H]4C[C@](C)(O)CC[C@@H]4[C@H]3CC[C@]12C [Example 127] | 100 to 1000 nM

Structure (SMILES) | IC50
COC[C@@]1(O)CC[C@H]2[C@H](CC[C@@H]3[C@@H]2CC[C@]2(C)[C@@H]([C@@H](C)NC(=O)c4ccc(OC(F)(F)F)cn4)CC[C@@H]32)C1 [Example 128] | 100 to 1000 nM
COC[C@@]1(O)CC[C@H]2[C@H](CC[C@@H]3[C@@H]2CC[C@]2(C)[C@@H]([C@H](C)NC(=O)c4ccc(OC(F)(F)F)cn4)CC[C@@H]32)C1 [Example 129] | 100 to 1000 nM
C[C@@H](NC(=O)c1ccc(C#N)cc1F)[C@H]1CC[C@H]2[C@@H]3CC[C@@H]4C[C@](C)(O)CC[C@@H]4[C@H]3CC[C@]12C [Example 130] | < 100 nM
COC[C@@]1(O)CC[C@H]2[C@H](CC[C@@H]3[C@@H]2CC[C@]2(C)[C@@H]([C@@H](C)NC(=O)c4ccc(C#N)cc4F)CC[C@@H]32)C1 [Example 131] | < 100 nM
CCOC[C@@]1(O)CC[C@H]2[C@H](CC[C@@H]3[C@@H]2CC[C@]2(C)[C@@H]([C@@H](C)NC(=O)c4ccc(C#N)cc4F)CC[C@@H]32)C1 [Example 133] | < 100 nM
COC[C@@]1(O)CC[C@H]2[C@H](CC[C@@H]3[C@@H]2CC[C@]2(C)[C@@H]([C@@H](C)NC(=O)c4ccc(F)cc4F)CC[C@@H]32)C1 [Example 134] | < 100 nM
COC[C@@]1(O)CC[C@H]2[C@H](CC[C@@H]3[C@@H]2CC[C@]2(C)[C@@H]([C@H](C)NC(=O)c4ccc(F)cc4F)CC[C@@H]32)C1 [Example 135] | 1000 to 10000 nM
COC[C@@]1(O)CC[C@H]2[C@H](CC[C@@H]3[C@@H]2CC[C@]2(C)[C@@H]([C@@H](C)n4cc(C#N)cn4)CC[C@@H]32)C1 [Example 150, 1-((R)-1-((3R, 5R, 8R, 9R, 10S, 135, 145, 17S)-3-hydroxy-3-(methoxymethyl)-13-methylhexadecahydro-1H-cyclopenta[a]phenanthren-17-yl)ethyl)-1H-pyrazole-4-carbonitrile] | < 100 nM
COC[C@@]1(O)CC[C@H]2[C@H](CC[C@@H]3[C@@H]2CC[C@]2(C)[C@@H]([C@H](C)n4cc(C#N)cn4)CC[C@@H]32)C1 [Example 151, 1-((S)-1-((3R,5R,8R,9R,10S,13S,14S,17S)-3-hydroxy-3-(methoxymethyl)-13-methylhexadecahydro-1H-cyclopenta[a]phenanthren-17-yl)ethyl)-1H-pyrazole-4-carbonitrile] | 1000 to 10000 nM
COC[C@@]1(O)CC[C@H]2[C@H](CC[C@@H]3[C@@H]2CC[C@]2(C)[C@@H]([C@@H](C)n4ncc(C#N)c4N)CC[C@@H]32)C1 [Example 152, 5-amino-1-((R)-1-((3R,5R,8R,9R,10S,13S,14S,17S)-3-hydroxy-3-(methoxymethyl)-13-methylhexadecahydro-1H-cyclopenta[a]phenanthren-17-yl)ethyl)-1H-pyrazole-4-carbonitrile] | 1000 to 10000 nM
COC[C@@]1(O)CC[C@H]2[C@H](CC[C@@H]3[C@@H]2CC[C@]2(C)[C@@H]([C@H](C)n4ncc(C#N)c4N)CC[C@@H]32)C1 [Example 153, 5-amino-1-((S)-1-((3R,5R,8R,9R,10S,13S,14S,17S)-3-hydroxy-3-(methoxymethyl)-13-methylhexadecahydro-1H-cyclopenta[a]phenanthren-17-yl)ethyl)-1H-pyrazole-4-carbonitrile] | 1000 to 10000 nM
C[C@H]([C@H]1CC[C@H]2[C@@H]3CC[C@@H]4C[C@](C)(O)CC[C@@H]4[C@H]3CC[C@]12C)n1ncc(C#N)c1N [Example 154, 5-amino-1-((R)-1-((3R,5R,8R,9R,10S,13S,14S,17S)-3-hydroxy-3,13-dimethylhexadecahydro-1H-cyclopenta[a]phenanthren-17-yl)ethyl)-1H-pyrazole-4-carbonitrile] | 1000 to 10000 nM
C[C@@H]([C@H]1CC[C@H]2[C@@H]3CC[C@@H]4C[C@](C)(O)CC[C@@H]4[C@H]3CC[C@]12C)n1ncc(C#N)c1N [Example 155, 5-amino-1-((S)-1-((3R,5R,8R,9R,10S,13S,14S,17S)-3-hydroxy-3,13-dimethylhexadecahydro-1H-cyclopenta[a]phenanthren-17-yl)ethyl)-1H-pyrazole-4-carbonitrile] | 1000 to 10000 nM
C[C@H]([C@H]1CC[C@H]2[C@@H]3CC[C@@H]4C[C@](C)(O)CC[C@@H]4[C@H]3CC[C@]12C)n1cc(C#N)cn1 [Example 156, 1-((R)-1-((3R,5R,8R,9R,10S,13S,14S,17S)-3-hydroxy-3,13-dimethylhexadecahydro-1H-cyclopenta[a]phenanthren-17-yl)ethyl)-1H-pyrazole-4-carbonitrile] | < 100 nM
C[C@@H]([C@H]1CC[C@H]2[C@@H]3CC[C@@H]4C[C@](C)(O)CC[C@@H]4[C@H]3CC[C@]12C)n1cc(C#N)cn1 [Example 157, 1-((S)-1-((3R,5R,8R,9R,10S,13S,14S,17S)-3-hydroxy-3,13-dimethylhexadecahydro-1H-cyclopenta[a]phenanthren-17-yl)ethyl)-1H-pyrazole-4-carbonitrile] | 1000 to 10000 nM
C[C@H]([C@H]1CC[C@H]2[C@@H]3CC[C@@H]4C[C@](C)(O)CC[C@@H]4[C@H]3CC[C@]12C)n1nccn1 [Example 158, (3R,5R,8R,9R,10S,13S,14S,17S)-17-((R)-1-(2H-1,2,3-triazol-2-yl)ethyl)-3,13-dimethylhexadecahydro-1H-cyclopenta[a]phenanthren-3-ol] | 100 to 1000 nM
C[C@H]([C@H]1CC[C@H]2[C@@H]3CC[C@@H]4C[C@](C)(O)CC[C@@H]4[C@H]3CC[C@]12C)n1ccnn1 [Example 159, (3R,5R,8R,9R,10S,13S,14S,17S)-17-((R)-1-(1H-1,2,3-triazol-1-yl)ethyl)-3,13-dimethylhexadecahydro-1H-cyclopenta[a]phenanthren-3-ol] | ≥ 10000 nM
